# System: KRAS G12V dependent lung adenocarcinoma cell line, NCI-H441
# Test: Cellular pERK (Thr202/Tyr204) FRET/HTRF assay
# Assay type: cell-based
# Settings: Homo sapiens, NCI-H441, cellular pERK (Thr202/Tyr204) HTRF, NCI-H441 cells
# In short: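 NCI-H441, overnight plating → cpd 1 hr, 37 °C/5% CO2; DMSO neg ctrl. Lyse (phosphatase inhibitors), add donor/acceptor Abs, RT incubation, HTRF read. IC50 by curve fit.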
row,IC50 [nM],SMILES
1,50 to 500,"[2H]C([2H])([2H])Oc1c(F)c(F)c(F)c2cccc(-c3ncc4c(N5CCOC[C@H]6[C@H](F)[C@H]65)nc(OC([2H])([2H])[C@@]56CCCN5C[C@H](F)C6)nc4c3F)c12 [Example 123, (1S,7S,8S)-8-fluoro-2-(8-fluoro-2-(((2R,7aS)-2-fluorotetrahydro-1H-pyrrolizin-7a(5H)-yl)methoxy-d2)-7-(5,6,7-trifluoro-8-(methoxy-d3)naphthalen-1-yl)pyrido[4,3-d]pyrimidin-4-yl)-5-oxa-2-azabicyclo[5.1.0]octane]"
2,< 50,"[2H]C([2H])(Oc1nc(N2CCC=C[C@H]3[C@H](F)[C@H]32)c2cnc(-c3cccc4ccc(F)c(C#C)c34)c(F)c2n1)[C@@]12CCCN1C[C@H](F)C2 [Example 147, 7-(8-Ethynyl-7-fluoronaphthalen-1-yl)-8-fluoro-4-((1S,7R,8S)-8-fluoro-2-azabicyclo[5.1.0]oct-5-en-2-yl)-2-(((2R,7aS)-2-fluorotetrahydro-1H-pyrrolizin-7a(5H)-yl)methoxy-d2)pyrido[4,3-d]pyrimidine]"
3,< 50,"C#Cc1c(F)ccc2cc(O)cc(-c3ncc4c(N5CCCO[C@H]6C[C@H]65)nc(OC[C@@]5(C)CCCN5C)nc4c3F)c12 [Example 283, 4-(4-((1S,7R)-2-oxa-6-azabicyclo[5.1.0]octan-6-yl)-2-(((R)-1,2-dimethylpyrrolidin-2-yl)methoxy)-8-fluoropyrido[4,3-d]pyrimidin-7-yl)-5-ethynyl-6-fluoronaphthalen-2-ol]"
4,50 to 500,"Cc1c(F)c(N)cc(-c2ncc3c(N4CCCC[C@H]5[C@H](F)[C@H]54)nc(OC[C@]45C/C(=C\F)CN4CCC54CC4)nc3c2F)c1C(F)(F)F [Example 380, 2-fluoro-5-(8-fluoro-4-((1S,7R,8S)-8-fluoro-2-azabicyclo[5.1.0]octan-2-yl)-2-(((R,E)-6′-(fluoromethylene)tetrahydrospiro[cyclopropane-1,1′-pyrrolizin]-7a′(5′H)-yl)methoxy)pyrido[4,3-d]pyrimidin-7-yl)-3-methyl-4-(trifluoromethyl)aniline]"
5,< 50,"C#Cc1c(F)ccc2cc(N)cc(-c3ncc4c(N5CCOC[C@H]6[C@H](F)[C@H]65)nc(OC[C@@]56CCCN5CC5(CC5)C6)nc4c3F)c12 [Example 187, 4-(2-(((S)-dihydro-1′H,3′H-spiro[cyclopropane-1,2′-pyrrolizin]-7a′(5′H)-yl)methoxy)-8-fluoro-4-((1S,7S,8S)-8-fluoro-5-oxa-2-azabicyclo[5.1.0]octan-2-yl)pyrido[4,3-d]pyrimidin-7-yl)-5-ethynyl-6-fluoronaphthalen-2-amine]"
6,500 to 10000,"[2H]C([2H])(Oc1nc(N2CCOC[C@H]3[C@H](F)[C@H]32)c2cc(Cl)c(-c3cc(N)cc(C)c3C(F)(F)F)c(F)c2n1)[C@@]12CCCN1C[C@H](F)C2 [Example 179, 3-(6-chloro-8-fluoro-4-((1S,7S,8S)-8-fluoro-5-oxa-2-azabicyclo[5.1.0]octan-2-yl)-2-(((2R,7aS)-2-fluorotetrahydro-1H-pyrrolizin-7a(5H)-yl)methoxy-d2)quinazolin-7-yl)-5-methyl-4-(trifluoromethyl)aniline]"
7,< 50,"[2H]C([2H])(Oc1nc(N2CCC=C[C@H]3[C@H](F)[C@H]32)c2cnc(-c3cc(N)cc4ccc(F)c(C#C)c34)c(F)c2n1)[C@@]12CCCN1C[C@H](F)C2 [Example 150, 5-Ethynyl-6-fluoro-4-(8-fluoro-4-((1S,7R,8S)-8-fluoro-2-azabicyclo[5.1.0]oct-5-en-2-yl)-2-(((2R,7aS)-2-fluorotetrahydro-1H-pyrrolizin-7a(5H)-yl)methoxy-d2)pyrido[4,3-d]pyrimidin-7-yl)naphthalen-2-amine]"
8,< 50,"[2H]C([2H])([2H])Oc1c(F)c(F)c(F)c2cc(N)cc(-c3ncc4c(N5CCOC[C@@H]6[C@H]5[C@@]6([2H])F)nc(OC([2H])([2H])[C@@]56CCCN5C[C@H](F)C6)nc4c3F)c12 [Example 119, 6,7,8-trifluoro-4-(8-fluoro-4-((1S,7S,8S)-8-fluoro-5-oxa-2-azabicyclo[5.1.0]octan-2-yl-8-d)-2-(((2R,7aS)-2-fluorotetrahydro-1H-pyrrolizin-7a(5H)-yl)methoxy-d2)pyrido[4,3-d]pyrimidin-7-yl)-5-(methoxy-d3)naphthalen-2-amine]"
9,500 to 10000,"[2H]C([2H])(Oc1nc(N2CCOC[C@H]3[C@H](F)[C@H]32)c2ccc(-c3cc(N)cc(C)c3C(F)(F)F)c(F)c2n1)[C@@]12CCCN1C[C@H](F)C2 [Example 180, 3-(8-fluoro-4-((1S,7S,8S)-8-fluoro-5-oxa-2-azabicyclo[5.1.0]octan-2-yl)-2-(((2R,7aS)-2-fluorotetrahydro-1H-pyrrolizin-7a(5H)-yl)methoxy-d2)quinazolin-7-yl)-5-methyl-4-(trifluoromethyl)aniline]"

# Same assay, conditions: Homo sapiens, NCI-H441, cellular pERK HTRF, NCI-H441 (KRAS G12V) cells
row,IC50 [nM],SMILES
1,500 to 10000,"[2H]C([2H])(Oc1nc(N2CCCC[C@@H]3[C@@H](Cl)[C@@H]32)c2cnc(-c3cc(N)cc4ccc(F)c(C#C)c34)c(C)c2n1)[C@@]12CCCN1C[C@H](F)C2 [Example 465, 4-(4-((1R,7S,8R)-8-chloro-2-azabicyclo[5.1.0]octan-2-yl)-2-(((2R,7aS)-2-fluorotetrahydro-1H-pyrrolizin-7a(5H)-yl)methoxy-d2)-8-methylpyrido[4,3-d]pyrimidin-7-yl)-5-ethynyl-6-fluoronaphthalen-2-amine]"
2,< 50,"C#Cc1c(F)ccc2cc(O)cc(-c3ncc4c(N5CCOC[C@H]6[C@H](F)[C@H]65)nc(OC[C@@]56CCCN5C/C(=C/F)C6)nc4c3C)c12 [Example 447, 5-ethynyl-6-fluoro-4-(4-((1S,7S,8S)-8-fluoro-5-oxa-2-azabicyclo[5.1.0]octan-2-yl)-2-(((S,E)-2-(fluoromethylene)tetrahydro-1H-pyrrolizin-7a(5H)-yl)methoxy)-8-methylpyrido[4,3-d]pyrimidin-7-yl)naphthalen-2-ol]"
3,< 50,"[2H]C([2H])(Oc1nc(N2CCOC[C@H]3[C@H](F)[C@H]32)c2cnc(-c3cc(N)cc4ccc(F)c(C#C)c34)c(C)c2n1)[C@@]12CCCN1CC(=C)C2 [Example 436, 5-Ethynyl-6-fluoro-4-(4-((1S,7S,8S)-8-fluoro-5-oxa-2-azabicyclo[5.1.0]octan-2-yl)-8-methyl-2-(((S)-2-methylenetetrahydro-1H-pyrrolizin-7a(5H)-yl)methoxy-d2)pyrido[4,3-d]pyrimidin-7-yl)naphthalen-2-amine]"
4,< 50,"[2H]C([2H])(Oc1nc(N2CCCC[C@H]3[C@H](F)[C@H]32)c2cnc(-c3cc(O)cc4ccc(F)c(C#C)c34)c(C)c2n1)[C@@]12CCCN1[C@H](C)[C@H](F)C2 [Example 473, 5-ethynyl-6-fluoro-4-(2-(((2R,3R,7aS)-2-fluoro-3-methyltetrahydro-1H-pyrrolizin-7a(5H)-yl)methoxy-d2)-4-((1S,7R,8S)-8-fluoro-2-azabicyclo[5.1.0]octan-2-yl)-8-methylpyrido[4,3-d]pyrimidin-7-yl)naphthalen-2-ol]"

# Same assay, conditions: Homo sapiens, NCI-H441, pERK HTRF, NCI-H441 cells (KRAS G12V)
row,IC50 [nM],SMILES
1,< 50,"[2H]C([2H])([2H])Oc1c(F)c(F)cc2cc(N)cc(-c3ncc4c(N5CCOC[C@H]6[C@H](F)[C@H]65)nc(OC([2H])([2H])[C@@]56CCCN5C[C@H](F)C6)nc4c3F)c12 [Example 44, 6,7-Difluoro-4-(8-fluoro-4-((1S,7S,8S)-8-fluoro-5-oxa-2-azabicyclo[5.1.0]octan-2-yl)-2-(((2R,7aS)-2-fluorotetrahydro-1H-pyrrolizin-7a(5H)-yl)methoxy-d2)pyrido[4,3-d]pyrimidin-7-yl)-5-(methoxy-d3)naphthalen-2-amine]"
2,< 50,"[2H]C([2H])([2H])Oc1c(F)c(F)cc2cc(N)cc(-c3ncc4c(N5CCCC[C@H]6[C@H](F)[C@H]65)nc(OC([2H])([2H])[C@@]56CCCN5C[C@H](F)C6)nc4c3F)c12 [Example 65, 6,7-Difluoro-4-(8-fluoro-4-((1S,7R,8S)-8-fluoro-2-azabicyclo[5.1.0]octan-2-yl)-2-(((2R,7aS)-2-fluorotetrahydro-1H-pyrrolizin-7a(5H)-yl)methoxy-d2)pyrido[4,3-d]pyrimidin-7-yl)-5-(methoxy-d3)naphthalen-2-amine]"
3,500 to 10000,"[2H]C([2H])(Oc1nc(N2CCC[C@@H]3[C@H](F)[C@@H]32)c2cnc(-c3cc(N)cc4cc(F)c(F)c(C#C)c34)c(F)c2n1)[C@@]12CCCN1C[C@H](F)C2 [Example 63, 5-Ethynyl-6,7-difluoro-4-(8-fluoro-4-((1R,6S,7S)-7-fluoro-2-azabicyclo[4.1.0]heptan-2-yl)-2-(((2R,7aS)-2-fluorotetrahydro-1H-pyrrolizin-7a(5H)-yl)methoxy-d2)pyrido[4,3-d]pyrimidin-7-yl)naphthalen-2-amine]"

# Same assay, conditions: cellular pERK HTRF, NCI-H441 (KRAS G12V) cells
row,IC50 [nM],SMILES
1,500 to 10000,"[2H]C([2H])(Oc1nc(N2CCOC[C@H]3[C@H](F)[C@H]32)c2cc(F)c(-c3cc(O)cc4ccc(F)c(C#C)c34)c(F)c2n1)[C@@]12CCCN1C[C@H](F)C2 (atropisomer, axis not shown; (aS)) [Example 454, 4-((S)-6,8-difluoro-4-((1S,7S,8S)-8-fluoro-5-oxa-2-azabicyclo[5.1.0]octan-2-yl)-2-(((2R,7aS)-2-fluorotetrahydro-1H-pyrrolizin-7a(5H)-yl)methoxy-d2)quinazolin-7-yl)-5-ethynyl-6-fluoronaphthalen-2-ol]"
2,< 50,"[2H]C([2H])(Oc1nc(N2CCOC[C@H]3[C@H](F)[C@H]32)c2cc(F)c(-c3cc(O)cc4ccc(F)c(C#C)c34)c(C)c2n1)[C@@]12CCCN1C[C@H](F)C2 [Example 469, 5-ethynyl-6-fluoro-4-((S)-6-fluoro-4-((1S,7S,8S)-8-fluoro-5-oxa-2-azabicyclo[5.1.0]octan-2-yl)-2-(((2R,7aS)-2-fluorotetrahydro-1H-pyrrolizin-7a(5H)-yl)methoxy-d2)-8-methylquinazolin-7-yl)naphthalen-2-ol]"
